From patent US9290740B2, “Use of basic fibroblast growth factor in the de-differentiation of animal connective tissue cells” (Worcester Polytechnic Institute, priority 2008, dated 2016)
Where “and” joins values, the source holds several entries; their conditions need not be identical. Equal values may be shown once.

Tests used:
Format in all cases: cell-based
[1] = tested on: adult human dermal fibroblasts (CRL-2352); assay: Effect of FGF2 and oxygen level on proliferation and in vitro lifespan (population doublings to senescence)
Protocol: Adult human fibroblasts (cell line CRL-2352) derived from connective tissue isolated from tissue derived from a below knee amputation of a person were received from American type Tissue Culture Collection (ATCC) (Manassas, Va.) as cryopreserved vials and were stored in liquid nitrogen until use. Cells were thawed at 37 C and added dropwise to 10 ml of basal culture medium (CM-1A, 45% DMEM without L-gln or phenol red (MediaTech, Manassas, Va.) with 4 mM L-Gln (MediaTech), 45% Hams F12 Medium (MediaTech), and 10% Fetalclone III (Hyclone, Logan, Utah)). The cell suspension was centrifuged at 700×g for 5 min, the medium aspirated and the pellet resuspended in fresh CM1A culture medium. Cells were seeded at a density of 0.5×106 in 10 ml of medium in T75 tissue culture flasks (BD Falcon). Cultures were carried out in a 37 C incubator in a humidified environment of 5% CO2, 5% O2, 90% N2. Cells were passaged at routine intervals at approximately 70-90% confluence using Trypsin-EDTA solution (MediaTech) diluted 1:5 in DPBS without Ca2+/Mg2+ (MediaTech). At each passage, cells were counted using a Levy Counting chamber (Hausser Scientific) and the number of population doublings calculated as log 2. For comparative studies, human recombinant FGF2 (either Invitrogen or Chemicon) was supplemented into CM1A at 4 ng/ml (medium designated CM2A) from a 100 μg/ml stock solution in DPBS (MediaTech).
Cells were passaged continuously at either 3 or 4 day intervals without interruption until in vitro senescence was reached. Two replicate T25 vessels of cells for each treatment (with or without FGF2) were seeded at each passage with 100,000 cells per vessel. The average number of population doublings (PDs) was calculated at each passage and cumulative PDs plotted versus time (days) in culture (FIG. 1).
Cells were thawed and seeded at equal density into T25 cell culture flasks (BD Falcon) and cultured at 37° C., 5% CO2, balance air (high O2); and 37° C., 5% CO2, 5% O2, 90% N2 (low O2). For each oxygen tension level, cells were also cultured with and without FGF2 (4 ng/ml). Cells were passaged at 3 or 4 day intervals, counted and 100,000 cells re-seeded at each passage. The number of population doublings at each passage was determined and cumulative population doublings compared between low and high O2 treatment groups. In addition, at day 28 of culture, FGF2 was removed from a population of cells and the culture continued to monitor the long term effect of previous culture with FGF2.
Primary adult human dermal fibroblasts from connective tissue isolated from tissue biopsy from a below knee amputation of a person were received from ATCC(CRL-2352) at passage 2. Cells were cultured in medium consisting of DMEM:Ham's F12 ([…], MediaTech) with 10% Fetalclone III (Hyclone, Logan, Utah). The DMEM (without L-Gln or phenol red) was supplemented with 4 mM fresh L-Gln (MediaTech) prior to use. Cultures were carried out in a 37° C. incubator in a humidified environment of 5% CO2, 5% O2, and 90% N2. The number of population doublings calculated as log2. Cells were seeded at 100,000 cells per T25 flask at each passage (Falcon). […] Human muscle derived fibroblasts were derived from surplus muscle tissue from the calf flexor muscle used for a surgical knee repair in an adult. Tissue was rinsed in Leibowitz L-15 medium (MediaTech) containing 10 μg/ml gentamicin (Invitrogen) and 2.5 μg/ml fungizone (Hyclone) and minced using a sterile scalpel and digested with 1800 units/ml collagenase Type IV for 1 hour at 37° C. Cell lines were established by culture at 5% O2 from the beginning and working stocks cryopreserved at passage 2.

[2] = tested on: adult human dermal fibroblasts (CRL-2352); assay: as above; settings: FGF2 10 ng/ml
[3] = tested on: Oct4, Sox2, Nanog, Rex1, Lin28, Klf4, TERT mRNA in adult human fibroblasts; assay: RT-PCR and qRT-PCR of stem cell gene transcripts
Protocol: RNA was extracted using TRIzol® reagent (Invitrogen) according to the manufacturer's protocol and quantified by spectrophotometry. 2 μg of RNA was subjected to DNase I digestion, followed by a reverse transcription using a QuantiTech® Reverse transcription kit (Qiagen) with a mixture of oligo-dT and random hexamers primers. 50 ng/well of cDNA was used as template in qPCR reactions with oligonucleotides specific for the genes of interest (Table 1 of Supplementary Information). A non-template control (NTC) and an RNA sample without RT for each sample were used to control for potential contaminating DNA. All qPCR reactions were performed in triplicate with the resultant values being combined into an average threshold cycle (CT). The efficiency of qPCR was calculated from the slope of a relative standard curve using GAPDH primers. Relative quantification was determined using a 7500 Real Time PCR system (Applied Biosystems) measuring SYBR green fluorescence (PerfeCTa™ SYBR Green FastMix, Low ROX (Quanta Biosciences)). Fold differences are calculated using the ΔΔCT method with the formula 2^−ΔΔCt. (Liss, B., “Improved quantitative real-time RT-PCR for expression profiling of individual cells”, Nucleic Acids Research 30(17), e89, 2002). Expression profiles for the mRNA transcripts are shown as fold differences in comparison to mRNA levels in control (untreated) fibroblast cells.
Total RNA was isolated using Trizol (Invitrogen) following the manufacturer's protocol. Four μg of total RNA was used to perform first strand cDNA synthesis using Superscript (Invitrogen). For RT-PCR, 0.5 μl of the first strand cDNA was used as template. PCR was performed in Mg^2+ free PCR buffer (TaKara) supplemented with 1.5 mM MgCl2, 200 μM each of dNTPs, 25 pmoles each of forward and reverse primers and 0.5 U of TaKara ExTaq polymerase per reaction. PCR cycling was done as follows: Initial denaturation at 95° C. for 2 minutes followed by 35 cycles of denaturation at 95° C. for 15 seconds; annealing at primer-specific annealing temperature for 1 minute; and extension at 72° C. for 1:30 minutes. Final extension was done at 72° C. for 10 minutes and the samples held at 4° C. until use. Amplification products were resolved on 2% agarose gels containing 0.5 μg/ml ethidium bromide in 1×TAE buffer and photographed using a Kodak […] Image Station.

[4] = reduced oxygen culture plus FGF2

Question: What does the source list for “FGF2: human recombinant FGF2 (Invitrogen, Chemicon or Protide), basic fibroblast growth factor”?
Answer: population doublings at senescence, low O2 with FGF2 ([1]; FGF2 4 ng/ml, 5% O2): 65 PDs and 70 PDs; proliferation rate versus cells without FGF2 ([1]; FGF2 4 ng/ml, 5% O2): proliferated more rapidly; additional population doublings achieved by addition of FGF2 (on average) ([1]; FGF2 4 ng/ml, 5% O2, until replicative senescence): 19 population doublings; population doublings at senescence, atmospheric oxygen with FGF2 ([1]; FGF2 4 ng/ml, atmospheric oxygen): 49 PDs and 50 PDs; cell morphology ([1]; FGF2, 5% O2): smaller cells with a more spindle shape; karyotype ([1]; FGF2/low oxygen-treated fibroblasts): maintained normal karyotype; increase in longevity / cell passage over primary cells cultured without these conditions ([1]; FGF2 and low oxygen conditions): two fold increase; number of passages observed ([1]; FGF2 and low oxygen conditions, primary cells typically about 20 to 30): 70 times; effect on adult fibroblast proliferation at 10 ng/ml [2]: halted adult fibroblast proliferation; transcription of Oct4, Nanog and Klf4 (RT-PCR) ([3]; 5% oxygen, FGF2 supplemented, day 7): increased; transcription of Sox2, Rex1 and Lin28 (RT-PCR) ([3]; 5% oxygen, day 7): significant transcriptional dependence on FGF2; Lin28 mRNA levels (qRT-PCR) [3, 4]: further increased; Rex1 and TERT mRNA (qRT-PCR) [3, 4]: not further affected
